Tests used:
Assay in all cases: relative viability (nuclei count vs DMSO), 5 days (fraction); higher = more cells survive
[1] = compound: Cc1cnc(Nc2ccc(OCCN3CCCC3)cc2)nc1Nc1cccc(S(=O)(=O)NC(C)(C)C)c1 [Fedratinib] + Nc1nc2[nH]cc(CCc3ccc(C(=O)N[C@@H](CCC(=O)O)C(=O)O)cc3)c2c(=O)[nH]1 [Pemetrexed] (partner 0.2 µM)
In short: (§1)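 A single step with final 0.05% Triton X-100, 1% formaldehyde and 1 ug/ml Hoechst fixed the cells and stained nuclei 5 days after treatment. Lung cancer cell lines in 1536-well plates had been treated by pin tool the day after seeding with one drug alone or a fixed anchor-drug dose plus five library-drug doses (not always all listed) in √10 steps, and nuclei were counted on 4× images. Relative viability is the ratio of nuclei in treated wells to nuclei in vehicle wells, taken as the median of duplicate plates.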

[2] = compound: Cc1cnc(Nc2ccc(OCCN3CCCC3)cc2)nc1Nc1cccc(S(=O)(=O)NC(C)(C)C)c1 [Fedratinib] + CS(=O)(=O)N1CCN(Cc2cc3nc(-c4cccc5[nH]ncc45)nc(N4CCOCC4)c3s2)CC1 [Pictilisib] (partner 1 µM)
In short: as §1

[3] = compound: COC1=CC=C(C=C1)COC2=C(C=C(C=C2)CC3=CN=C(N=C3N)N)OC [GW-2580] + Nc1nc2[nH]cc(CCc3ccc(C(=O)N[C@@H](CCC(=O)O)C(=O)O)cc3)c2c(=O)[nH]1 [Pemetrexed] (partner 0.2 µM)
In short: as §1

[4] = compound: Cc1cnc(Nc2ccc(OCCN3CCCC3)cc2)nc1Nc1cccc(S(=O)(=O)NC(C)(C)C)c1 [Fedratinib] + COc1cc2c(Oc3ccc(NC(=O)C4(C(=O)Nc5ccc(F)cc5)CC4)cc3F)ccnc2cc1OCCCN1CCOCC1 [Foretinib] (partner 0.25 µM)
In short: as §1

[5] = compound: Cc1cnc(Nc2ccc(OCCN3CCCC3)cc2)nc1Nc1cccc(S(=O)(=O)NC(C)(C)C)c1 [Fedratinib] + CC(=O)Nc1cccc(-n2c(=O)n(C3CC3)c(=O)c3c(Nc4ccc(I)cc4F)n(C)c(=O)c(C)c32)c1 [Trametinib] (partner 0.02 µM)
In short: as §1

[6] = compound: COC1=CC=C(C=C1)COC2=C(C=C(C=C2)CC3=CN=C(N=C3N)N)OC [GW-2580] + C[C@@H](Oc1cc(-c2cnn(C3CCNCC3)c2)cnc1N)c1c(Cl)ccc(F)c1Cl [Crizotinib] (partner 1 µM)
In short: as §1

Row | Cell Line | relative viability ([1]; first compound 0.1 µM) | relative viability ([1]; first compound 0.3162 µM) | relative viability ([1]; first compound 1 µM) | relative viability ([2]; first compound 0.1 µM) | relative viability ([2]; first compound 0.3162 µM) | relative viability ([2]; first compound 1 µM) | relative viability ([3]; first compound 0.08 µM) | relative viability ([3]; first compound 0.8 µM) | relative viability ([3]; first compound 2.53 µM) | relative viability ([3]; first compound 8 µM) | relative viability ([4]; first compound 0.1 µM) | relative viability ([4]; first compound 0.3162 µM) | relative viability ([4]; first compound 1 µM) | relative viability ([5]; first compound 0.1 µM) | relative viability ([5]; first compound 0.3162 µM) | relative viability ([5]; first compound 1 µM) | relative viability ([6]; first compound 0.08 µM) | relative viability ([6]; first compound 0.8 µM) | relative viability ([6]; first compound 2.53 µM) | relative viability ([6]; first compound 8 µM)
1 | NCI-H2170 | 0.284 | 0.27 | 0.253 | 0.266 | 0.329 | 0.221 | 0.26 | 0.261 | 0.264 | 0.251 | 1.02 | 0.996 | 1.02 | 0.931 | 0.887 | 0.847 | 1.23 | 1.33 | 1.22 | 1.36
2 | NCI-H2347 | 0.335 | 0.419 | 0.433 | 0.584 | 0.513 | 0.561 | 0.468 | 0.473 | 0.464 | 0.446 | 0.869 | 0.853 | 0.829 | 0.252 | 0.27 | 0.27 | 0.733 | 0.702 | 0.603 | 0.736
3 | NCI-H1993 | 0.523 | 0.513 | 0.589 | 0.779 | 0.872 | 0.771 | 0.601 | 0.703 | 0.54 | 0.576 | 0.763 | 0.818 | 0.808 | 0.547 | 0.419 | 0.421 | 0.971 | 0.828 |  | 0.936
4 | NCI-H322M | 0.61 | 0.651 | 0.538 | 0.5 | 0.503 | 0.406 | 0.582 | 0.626 | 0.676 | 0.567 | 0.946 | 0.95 | 0.596 | 0.439 | 0.481 | 0.508 | 0.982 | 0.969 | 0.994 | 0.862
5 | NCI-H838 | 0.236 | 0.224 | 0.225 | 0.449 | 0.47 | 0.213 | 0.268 | 0.262 | 0.234 | 0.266 | 1.05 | 1.06 | 0.989 | 0.475 | 0.525 | 0.542 | 0.946 | 0.904 | 0.779 | 0.8
6 | HARA | 0.253 | 0.259 | 0.185 | 0.348 | 0.422 | 0.306 | 0.289 | 0.254 | 0.29 | 0.299 | 0.948 | 0.493 | 0.782 | 0.521 | 0.907 | 0.546 | 1.15 | 1.05 | 1.12 | 0.939
7 | NCI-H2087 | 0.739 | 0.651 | 0.731 | 0.705 | 1 | 0.27 | 0.68 | 0.713 | 0.7 | 0.625 | 0.65 | 1.01 | 1.01 | 0.203 | 0.177 | 0.213 | 0.8 | 0.993 | 1 | 0.772
